Assay [1] addresses T1, porcine pancreatic lipase (PL) (Sus scrofa, UniProt P00591).
T1 construct: purchased Sigma
T1 sequence (P00591 1-450): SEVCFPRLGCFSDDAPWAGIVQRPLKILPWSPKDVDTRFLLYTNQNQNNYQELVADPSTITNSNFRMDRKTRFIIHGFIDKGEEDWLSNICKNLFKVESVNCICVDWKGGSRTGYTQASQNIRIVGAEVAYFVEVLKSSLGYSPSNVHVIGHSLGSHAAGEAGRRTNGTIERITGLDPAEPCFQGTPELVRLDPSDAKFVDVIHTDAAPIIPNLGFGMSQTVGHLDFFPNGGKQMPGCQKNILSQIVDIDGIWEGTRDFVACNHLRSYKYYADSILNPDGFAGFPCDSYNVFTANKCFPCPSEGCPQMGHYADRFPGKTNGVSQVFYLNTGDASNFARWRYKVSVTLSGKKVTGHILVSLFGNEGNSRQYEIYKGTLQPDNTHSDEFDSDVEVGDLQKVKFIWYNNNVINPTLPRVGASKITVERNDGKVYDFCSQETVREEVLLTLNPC
In words: Pancreatic lipase inhibition, Copper soap method. The assay is classed as biochemical. To be noted: olive oil substrate, PBS pH 7.38, triplicate. The method, then:
Copper soap method: The lipase activity assay involved a reaction medium (10 mL) containing 1 mg of olive oil, 3 mL 0.0667 mol/L, pH = 7.38 phosphate buffer saline (PBS), and 0.1 mL (C = 1 mg/mL) of lipase in the presence of 1 mL peptides with different concentrations. The peptides solution was prepared by dissolving in the working solution and was then added to reaction mixtures just before the reaction. Control lipase activity was determined without peptides. All samples were analyzed in triplicate. (1) Inhibition%=1−(Aa−A0)−(Ab−A0)/(Aa−A0)×100% where Ab refers to the absorbance value of the normal group; A0 is referred to the absorbance value of blank; and Aa is the absorbance values of the control group.

Assay [2] concerns 3T3-L1 adipocytes. In words: Intracellular triacylglycerol in 3T3-L1 adipocytes. The assay is classed as cell-based. Particulars: for decrease of intracellular triacylglycerol accumulation: 3T3-L1 cells. The method, then: (§1) First, 3T3-L1 cells were cultured in Dulbecco’s modified Eagle’s medium (DMEM) medium containing 10% (v/v) fatal bovine serum (FBS) and 1% antibiotics in a humidified atmosphere of 5% CO2 at 37 °C. For cell toxicity assessment, 3T3-L1 cells (1 × 10^5) were seeded in a 96-well plate for 24 h. After that, the cells were incubated for 6 days in DMEM containing various concentrations (0–1.0 mg/mL) of the synthetic PP1. Cell toxicity was measured by MTT according to the instructions indicated by the manufacturer. For cell differentiation, 3T3-L1 cells were seeded in 6-well plates at a density of 2 × 10^5 cells/well. Then, the medium was changed by DMEM with insulin (5 μg/mL; Sigma), 1 μM of dexamethasone (Sigma), and 0.5 mM of 3-isobutyl-1-methylxanthine. On day 3, the medium was replaced with DMEM containing insulin (5 μg/mL; Sigma) and 10% (v/v) FBS every 3 days. Various concentrations of the synthetic PP1 were attendant during the whole process of differentiation induction. Oil Red O staining of the intracellular lipids was carried out, as described previously. Moreover, intracellular triacylglycerol levels were measured by using an Assay Triglyceride Kit. Protein concentrations were determined with BCA Protein Assay.

The test system of assay [3] is 3T3-L1 adipocytes. In words: Lipid accumulation / differentiation in 3T3-L1 cells (Oil Red O). The assay is classed as cell-based. The method, then:
as §1

The subject of assay [4] is C/EBPα. In words: Western blot, C/EBPα expression. The assay is classed as cell-based. To be noted: PP1 600 μg/mL, 3T3-L1 adipocytes. As to the method: (§2) Cells were lysed in Radio Immunoprecipitation Assay (RIPA) buffer for 1 h and then centrifuged at 12,000 rpm for 25 min at 4 °C. The protein concentrations were determined by using a BCA protein assay kit. The supernatants were mixed with 4 × Sodium dodecyl sulfate (SDS) sample buffer and boiled for 10 min. The samples were run on a 4–15% SDS polyacrylamide gel and then transferred to a polyvinylidene difluoride membrane. The membrane was blocked with 5% (w/v) bovine serum albumin (BSA) for 30 min and then incubated with primary antibodies at 4 °C overnight. After washing with Tris-Buffered Saline and Tween 20 (TBST) 3 times, the membranes were washed with TBST and incubated with the secondary antibodies. Signals were detected with a scanner (Thermo Fisher Scientific, Inc.), and the fluorescence intensity was measured using Image software.
On the technique in general: Immunoblotting shows a protein as a band on a membrane.

The test system of assay [5] is SREBP-1c. Description: Western blot, SREBP-1c expression. The assay is classed as cell-based. Particulars: PP1 600 μg/mL, 3T3-L1 adipocytes. The method, then:
as §2

For assay [6], the system named is PPARγ. Description: Western blot, PPARγ expression. Particulars: PP1 600 μg/mL, 3T3-L1 adipocytes. The assay is classed as cell-based. As to the method: as §2
For assay [7], the system named is AMPKα. In words: Western blot, AMPKα expression. The assay is classed as cell-based. To be noted: PP1 600 μg/mL, 3T3-L1 adipocytes. As to the method: as §2
The mark [8] stands for this setting: Table 2, Alcalase hydrolysate fractions and positive drugs, mean ± SD, test concentration not given.

As to `CCCCCCCCCCC[C@@H](C[C@@H]1OC(=O)[C@H]1CCCCCC)OC(=O)[C@H](CC(C)C)NC=O` [Orlistat], in assay [1] (setting [8]), the “Inhibition of Pancreatic Lipase” value is reported as 88.85 ± 2.42%.
With `CCC(C)(C)C(=O)O[C@H]1C[C@@H](C)C=C2C=C[C@H](C)[C@H](CC[C@@H]3C[C@@H](O)CC(=O)O3)[C@H]21` [simvastatin, reference compound], in assay [1] (setting [8]), the “Inhibition of Pancreatic Lipase” value is 35.2 ± 1.9%. Also, in assay [2] (simvastatin 10 μM, positive drug), the “decrease of intracellular triacylglycerol accumulation” value stood at 24.1%.
As for “Leu-Leu-Val-Val-Try-Pro-Trp-Thr-Gln-Arg (LLVVYPWTQR) [PP1, synthetic decapeptide identified from A2 fraction of Alcalase hydrolysate]”, the “Inhibition of Pancreatic Lipase” value in assay [1] (synthetic peptide at 200 μg/mL) was determined as 47.95%. Also, the differentiation inhibition result in assay [3] (3T3-L1 pre-adipocytes) was “good differentiation inhibition activity”. In addition, the “number of intracellular lipid droplets” value in assay [3] (Oil Red O, PP1 present during differentiation, compared with model group) is given as “clearly decreased compared with that in the model group”. In addition, in assay [2] (PP1 600 μg/mL), the “decrease of intracellular triacylglycerol accumulation” value turned out to be 27.9%. Also, the intracellular triacylglycerol level in assay [2] (PP1 600 μg/mL during differentiation, p < 0.05, mature adipocyte (model) 82.98 ± 11.2, pre-adipocytes 25.98 ± 1.6) was determined as 59.82 ± 6.78 nmol/mg protein. In assay [4], the C/EBPα protein level result is given as “decreased the levels of C/EBPα”. In addition, the SREBP-1c protein level entry in assay [5] is “decreased the levels of C/EBPα, SREBP-1c”. Besides, in assay [6], the PPARγ protein level result is “decreased the levels of C/EBPα, SREBP-1c, and PPARγ”. The AMPKα protein expression result in assay [7] is “significantly increased the expression of AMPKα”.
